Results: PubChem BioAssay AID1918936 (Molecular Pharmacology Branch, DTP, NCI, 2023)
“And” between values parts separate entries of the source, which are not always exact repeats. Equal values may be shown once.

Test system: 349418-098-R-PDC complex spheroid viability
Test: Anticancer human tumor 349418-098-R-PDC patient-derived lung adenocarcinoma cell line growth inhibition
Settings: for viability, T/C: stronger effect = lower value; active means viability on the fitted dose curve at most 10% of control; inactive means the rest
How it was run: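 Multicellular complex spheroids of tumor cells with human endothelial cells (HUVEC) and mesenchymal stem cells; the LSD1 inhibitor iadademstat was combined with standard-of-care or investigational agents. Top concentration at or near clinical Cmax, half-log dilutions; final DMSO ≤0.25%.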

[1] = curve of first compound, second compound 0.1 µM
[2] = curve of first compound, second compound 0.316 µM
[3] = curve of first compound, second compound 1 µM
[4] = curve of first compound, second compound 3.16 µM
[5] = curve of first compound, second compound 10 µM
[6] = second compound 0.1 µM, first compound 0.00949 µM
[7] = second compound 0.1 µM, first compound 0.03 µM
[8] = second compound 0.1 µM, first compound 0.0949 µM
[9] = second compound 0.1 µM, first compound 0.3 µM
[10] = second compound 0.316 µM, first compound 0.00949 µM
[11] = second compound 0.316 µM, first compound 0.03 µM
[12] = second compound 0.316 µM, first compound 0.0949 µM
[13] = second compound 0.316 µM, first compound 0.3 µM
[14] = second compound 1 µM, first compound 0.00949 µM
[15] = second compound 1 µM, first compound 0.03 µM
[16] = second compound 1 µM, first compound 0.0949 µM
[17] = second compound 1 µM, first compound 0.3 µM
[18] = second compound 3.16 µM, first compound 0.00949 µM
[19] = second compound 3.16 µM, first compound 0.03 µM
[20] = second compound 3.16 µM, first compound 0.0949 µM
[21] = second compound 3.16 µM, first compound 0.3 µM
[22] = second compound 10 µM, first compound 0.00949 µM
[23] = second compound 10 µM, first compound 0.03 µM
[24] = second compound 10 µM, first compound 0.0949 µM
[25] = second compound 10 µM, first compound 0.3 µM
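Further: spheroids exposed to agents for seven days before readout.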
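Wherever viability, T/C is given: 100% = DMSO vehicle control wells.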

CCc1c2c(nc3ccc(O)cc13)-c1cc3c(c(=O)n1C2)COC(=O)[C@]3(O)CC + NC1CCC(NC2CC2c2ccccc2)CC1
active: viability, T/C (second compound 0.1 µM, first compound 0.000949 µM) 4.09% | viability, T/C (second compound 0.1 µM, first compound 0.003 µM) 2.43% | viability, T/C [6] 2.12% | viability, T/C [7] 1.2% | viability, T/C [8] 1.37% | viability, T/C [9] 1.52% | viability, T/C (second compound 0.316 µM, first compound 0.000949 µM) 3.85% | viability, T/C (second compound 0.316 µM, first compound 0.003 µM) 2.61% | viability, T/C [10] 2.07% | viability, T/C [11] 1.29% | viability, T/C [12] 1.05% | viability, T/C [13] 1.44% | viability, T/C (second compound 1 µM, first compound 0.000949 µM) 4.08% | viability, T/C (second compound 1 µM, first compound 0.003 µM) 2.65% | viability, T/C [14] 1.89% | viability, T/C [15] 1.41% | viability, T/C [16] 1.14% | viability, T/C [17] 1.59% | viability, T/C (second compound 3.16 µM, first compound 0.000949 µM) 3.68% | viability, T/C (second compound 3.16 µM, first compound 0.003 µM) 2.54% | viability, T/C [18] 1.99% | viability, T/C [19] 1.37% | viability, T/C [20] 1.05% | viability, T/C [21] 1.61% | viability, T/C (second compound 10 µM, first compound 0.000949 µM) 3.85% | viability, T/C (second compound 10 µM, first compound 0.003 µM) 2.63% | viability, T/C [22] 2.13% | viability, T/C [23] 1.59% | viability, T/C [24] 1.21% | viability, T/C [25] 1.47%
< 0.949 nM: IC50 [1] | IC50 [2] | IC50 [3] | IC50 [4] | IC50 [5]

NS(=O)(=O)OCC1CC(n2ccc3c(NC4CCc5ccccc54)ncnc32)CC1O (configuration not stated) + NC1CC1c1ccc(-c2cccc(O)c2)cc1
59.1 nM: IC50 [2]
60.7 nM: IC50 [4]
64.1 nM: IC50 [1]
38 nM: IC50 [5]
inactive: viability, T/C [6] 116% | viability, T/C [7] 86.6% | viability, T/C [8] 30.5% | viability, T/C [10] 120% | viability, T/C [11] 82.3% | viability, T/C [12] 26.6% | viability, T/C [14] 124% | viability, T/C [15] 77% | viability, T/C [16] 31.9% | viability, T/C [17] 11.3% | viability, T/C [18] 124% | viability, T/C [19] 81.6% | viability, T/C [20] 29.2% | viability, T/C [21] 12.2% | viability, T/C [22] 106% | viability, T/C [23] 55.5% | viability, T/C [24] 28.1% | viability, T/C [25] 9.97%
59.6 nM: IC50 [3]
active: viability, T/C [9] 11.9% | viability, T/C (second compound 0.1 µM, first compound 0.949 µM) 5.29% | viability, T/C (second compound 0.1 µM, first compound 3 µM) 4.99% | viability, T/C [13] 12.4% | viability, T/C (second compound 0.316 µM, first compound 0.949 µM) 5.84% | viability, T/C (second compound 0.316 µM, first compound 3 µM) 4.12% | viability, T/C (second compound 1 µM, first compound 0.949 µM) 5.2% | viability, T/C (second compound 1 µM, first compound 3 µM) 4.27% | viability, T/C (second compound 3.16 µM, first compound 0.949 µM) 5.08% | viability, T/C (second compound 3.16 µM, first compound 3 µM) 4.44% | viability, T/C (second compound 10 µM, first compound 0.949 µM) 4.94% | viability, T/C (second compound 10 µM, first compound 3 µM) 2.73%

CC1COCCN1c1cc(C2(S(C)(=N)=O)CC2)nc(-c2ccnc3[nH]ccc23)n1 (configuration not stated)
inactive: viability, T/C (compound 0.0316 µM) 106% and 107% | viability, T/C (compound 0.1 µM) 91.2% and 108% | viability, T/C (compound 0.316 µM) 57% and 96.7% | viability, T/C (compound 1 µM) 14.8% and 49.8%
10.1% and 11.9%: viability, T/C (compound 3.16 µM)
368 nM and 977 nM: IC50 (curve of compound)
active: viability, T/C (compound 10 µM) 10.6% and 11.5%

Nc1ncn(C2CC(O)C(CO)O2)c(=O)n1 (configuration not stated) + NC1CC1c1ccc(-c2cccc(O)c2)cc1
90.3 nM: IC50 [2]
95.3 nM: IC50 [4]
inactive: viability, T/C (second compound 0.1 µM, first compound 0.00316 µM) 102% | viability, T/C (second compound 0.1 µM, first compound 0.01 µM) 99.1% | viability, T/C (second compound 0.1 µM, first compound 0.0316 µM) 78.3% | viability, T/C (second compound 0.1 µM, first compound 0.1 µM) 45.8% | viability, T/C (second compound 0.1 µM, first compound 0.316 µM) 37.3% | viability, T/C (second compound 0.1 µM, first compound 1 µM) 28.2% | viability, T/C (second compound 0.316 µM, first compound 0.00316 µM) 113% | viability, T/C (second compound 0.316 µM, first compound 0.01 µM) 95% | viability, T/C (second compound 0.316 µM, first compound 0.0316 µM) 88.4% | viability, T/C (second compound 0.316 µM, first compound 0.1 µM) 44.2% | viability, T/C (second compound 0.316 µM, first compound 0.316 µM) 32.9% | viability, T/C (second compound 0.316 µM, first compound 1 µM) 27.9% | viability, T/C (second compound 1 µM, first compound 0.00316 µM) 105% | viability, T/C (second compound 1 µM, first compound 0.01 µM) 105% | viability, T/C (second compound 1 µM, first compound 0.0316 µM) 83.4% | viability, T/C (second compound 1 µM, first compound 0.1 µM) 45.8% | viability, T/C (second compound 1 µM, first compound 0.316 µM) 32.5% | viability, T/C (second compound 1 µM, first compound 1 µM) 27.1% | viability, T/C (second compound 3.16 µM, first compound 0.00316 µM) 111% | viability, T/C (second compound 3.16 µM, first compound 0.01 µM) 108% | viability, T/C (second compound 3.16 µM, first compound 0.0316 µM) 85.5% | viability, T/C (second compound 3.16 µM, first compound 0.1 µM) 48.4% | viability, T/C (second compound 3.16 µM, first compound 0.316 µM) 30.6% | viability, T/C (second compound 3.16 µM, first compound 1 µM) 25.1% | viability, T/C (second compound 10 µM, first compound 0.00316 µM) 92.4% | viability, T/C (second compound 10 µM, first compound 0.01 µM) 78.3% | viability, T/C (second compound 10 µM, first compound 0.0316 µM) 67.8% | viability, T/C (second compound 10 µM, first compound 0.1 µM) 38.3% | viability, T/C (second compound 10 µM, first compound 0.316 µM) 28% | viability, T/C (second compound 10 µM, first compound 1 µM) 26.7%
88.5 nM: IC50 [3]
89.4 nM: IC50 [1]
62.8 nM: IC50 [5]
